{
  "source": "patent US20050233963A1",
  "about": "(priority 2000, published 2005)",
  "key": {"SN hantavirus": {"test_system": "SN hantavirus", "format": "cell-based, Sin Nombre virus"}, "hsp90": {"test_system": "hsp90", "test": "UBP far-western analysis on hsp90", "format": "binding", "settings": "purified hsp90", "protocol": "The numbers to the left of the blots indicate the molecular weights in kilodaltons. The regions of UBP contained in each fusion construct are diagrammed below the blots. The right column summarizes the results: a plus symbol indicates binding and a minus symbol indicates no binding.\nWestern blots were performed using standard techniques. Briefly, 30 μg HeLa cytoplasmic extract or 20 ng of hsc70, hsp70, or hsp90 were denatured in 1×SDS sample buffer. The samples were loaded on a 10% polyacrylamide gel. Separated protein was transferred to nitrocellulose membranes. The membranes were blocked in 5% dry milk protein in TBS (20 mM Tris [pH 7.4], 100 mM NaCl) for 45 min. […] Primary antibody, either anti-hsp70 or hsp90 monoclonal antibodies, or anti-UBP rabbit polyclonal antibody was incubated with the blots at appropriate concentrations (1:1000 dilutions for each) in 5% milk protein in TBS for 2 hours at 4° C. with gentle rocking. The membranes were washed with TBS for 10 minutes. Secondary antibody, either alkaline phosphatase conjugated goat anti-mouse IgG or alkaline phosphatase conjugated goat anti-rabbit IgG diluted at 1:5000 in 5% Milk in TBS, was incubated with the blots for 2 hours at 4° C. with gentle rocking. […]"}, "HIV-1": {"test_system": "HIV-1", "settings": "overexpression in virus-producing cells (Callahan et al., 1998); cited from earlier work"}, "hsc70 [1]": {"molecular_target": "T1, hsc70 (Bos taurus, UniProt P19120)", "T1 sequence (P19120 2-650 limits assumed)": "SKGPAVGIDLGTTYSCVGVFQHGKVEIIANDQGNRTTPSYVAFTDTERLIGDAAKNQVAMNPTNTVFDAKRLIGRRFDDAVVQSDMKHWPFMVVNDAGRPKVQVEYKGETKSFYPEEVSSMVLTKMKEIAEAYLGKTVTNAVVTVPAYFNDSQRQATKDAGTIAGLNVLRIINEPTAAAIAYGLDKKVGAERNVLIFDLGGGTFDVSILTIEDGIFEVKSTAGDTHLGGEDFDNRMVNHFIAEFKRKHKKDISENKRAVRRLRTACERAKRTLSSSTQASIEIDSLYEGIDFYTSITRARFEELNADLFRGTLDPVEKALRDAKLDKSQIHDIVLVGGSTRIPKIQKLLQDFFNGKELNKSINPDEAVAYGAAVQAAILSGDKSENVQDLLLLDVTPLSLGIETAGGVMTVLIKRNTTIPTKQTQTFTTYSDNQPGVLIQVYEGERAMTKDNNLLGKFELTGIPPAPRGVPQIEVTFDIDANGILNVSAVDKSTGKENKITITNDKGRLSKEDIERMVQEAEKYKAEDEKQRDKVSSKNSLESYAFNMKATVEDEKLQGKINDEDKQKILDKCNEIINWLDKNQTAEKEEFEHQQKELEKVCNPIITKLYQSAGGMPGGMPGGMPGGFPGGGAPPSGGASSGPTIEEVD", "test": "Refolding of heat-denatured luciferase by hsc70", "settings": "28 nM hsc70, 1 mM ATP, 0 to 100 minutes at 30° C."}, "hsc70 [2]": {"molecular_target": "T1, hsc70", "test": "GST-UBP/hsc70 pull down assay with NaCl washes", "format": "binding", "set-up": "purchased Stressgen", "settings": "washes of increasing NaCl, up to 0.5 M NaCl", "from_the_text": "(§1) FIG. 13A: Thirty μg of HeLa cell lysate was separated by SDS-PAGE in three identical lanes, blotted to nitrocellulose and probed with either, no probe (none), GST alone, or GST-UBP. The far-western blot was then developed with anti-GST antibody to reveal bands which interact with UBP. The arrow to the right indicates a 70 kD band detected by the GST-UBP fusion. The numbers to the left of each blot represent molecular weights in kilodaltons. […] FIG. 13C, Samples from the GST-UBP pull down assay were analyzed by western blot for the presence hsc70. At the bottom of the gel, the contents of each reaction are indicated by the plus symbols. The NaCl concentration of the washing buffer (100, 200, 300, and 500 mM) is indicated at the top of each lane. The arrow to the right of the blot indicates the position of the hsc70 band.\nEither GST or GST-UBP protein was incubated with a 100 μl bed volume of beads in a total volume of 300 μl of binding buffer at 4° C. with gentle rocking for 2 hours. The beads were washed and then blocked with 5% BSA in binding buffers. The beads were washed in binding buffer then incubated with 200 ng of hsc70 in binding buffer for 2 hours at 4° C. […] The samples were heated to 80° C. for 3 minutes then supernatants recovered by centrifugation were analyzed by western blot for hsc70."}, "hsc70 [3]": {"molecular_target": "T1, hsc70", "test": "UBP far-western analysis on hsc70", "format": "binding", "set-up": "purchased Stressgen", "settings": "GST fusions as probe", "from_the_text": "as §1\nThe term “hsc70” is used when referring to both hsp70 and its nearly identical constitutive counterpart, hsc70. […] The numbers to the left of the blots indicate the molecular weights in kilodaltons. The diagram below the blots indicates regions of UBP contained in each fusion construct. The column to the right summarizes the results, where a plus symbol indicates binding and a minus symbol indicates no binding.\nWestern blots were performed using standard techniques. […]"}, "hsc70 [4]": {"molecular_target": "T1, hsc70", "test": "Hsc70 ATPase assay", "format": "biochemical", "set-up": "purchased Stressgen", "settings": "28 nM hsc70, 0-176 nM UBP, 1 hr at 30° C.", "protocol": "ADP was separated from ATP by thin-layer chromatography and quantified using a phosphorimager. […] The data are represented as the percent ATP hydrolysis and are plotted as a function of time from 0-75 minutes.\nATPase assays were performed essentially as described (Liberek et al., 1991, J. Biol. Chem. 266:14491-14496). […] The reactions were carried out at 30° C. in ATPase buffer (30 mM 4-(-2 hydroxymethl)-1-piperazineethanesulfonic acid (HEPES) buffer pH 7.5, 40 mM KCl, 50 mM NaCl, 5 mM MgCl2, and 2 mM dithiothreitol). […] A 5 μl aliquot of each reaction was directly loaded onto a polyethylamine-cellulose (PEI)-thin layer sheet (Selecto Scientific, Suwanee, Ga.). The products were separated from the substrate by chromatography using 1 M formic acid/1 M LiCl (1:1, vol/vol) as a vehicle. The location of ADP and ATP on the plates was visualized by use of a Phosphorimager (Molecular Dynamics, San Jose, Calif.). […] Five μl aliquots of each reaction were taken at time points of 0, 15, 30, 45, 60, 75 minutes. The samples were analyzed as previously described. Data were quantified and expressed as the percent ATP hydrolysis."}},
  "data": [
    {"compound": "O=c1c(O)c(-c2ccc(O)c(O)c2)oc2cc(O)cc(O)c12", "note": "[quercetin]", "values": [
      {"measurement": "inhibition of viral RNA titers", "setting": "SN hantavirus", "value": 7.3, "unit": "fold"},
      {"measurement": "viral RNA titers after heat shock", "setting": "SN hantavirus", "value": "did not have increased levels of viral RNA titers"}
    ]},
    {"compound": "UBP: Viral protein U (Vpu) binding protein, cellular tetratricopeptide repeat (TPR) co-chaperone family member", "values": [
      {"measurement": "association with hsp90", "setting": "hsp90", "value": "could associate"},
      {"measurement": "HIV-1 virion release", "setting": "HIV-1", "value": "significant reduction"},
      {"measurement": "inhibition of hs70-dependent refolding of luciferase", "setting": "hsc70 [1]", "value": "about 30%"},
      {"measurement": "stability of UBP-hs70 interaction to NaCl washes", "setting": "hsc70 [2]", "value": "maintained even in the presence of relatively high salt concentrations"},
      {"measurement": "interaction with hsc70", "setting": "hsc70 [3]", "value": "does stably associate"},
      {"measurement": "hsc70-mediated hydrolysis of ATP", "setting": "hsc70 [4]", "value": "negatively affected"}
    ]}
  ]
}
